System: influenza virus (A/WS/33)
Conditions: FIG. 6
Method: The protocol described here is a two-step assay, i.e., the neuraminidase reaction and firefly luciferase reaction are carried out sequentially in two steps. Approximately 1 μg of conjugate was incubated at 37° C. for 15 minutes with 0, 0.5, 5, 50, 500 or 5,000 TCID50 units of influenza virus (A/WS/33) in a 25 μL reaction solution (32.5 mM MES, pH 6.5, 4 mM CaCl2, 0.65% Triton X-100). 12.5 μL of the reaction solution was mixed with 100 μL of luciferase reaction solution (20 nM recombinant firefly luciferase, 4 mM ATP, 13.4 mM MgSO4, 100 mM Trizma, pH 7.9, 4% mannitol, and 1% sucrose) and measured for light signal using a luminometer (Sirius purchased from Berthold). Total light output was collected by integrating RLU over a period of 30 seconds.

For `CC(=O)NC1C(O)CC(Oc2ccc3nc(C4=NC(C(=O)O)CS4)sc3c2)(C(=O)O)OC1C(O)C(O)CO` (centres unmarked) [N-acetylneuraminic acid-firefly luciferin conjugate], which “influenza virus input resulting in significantly more signal in comparison with the negative control” value (approx. 1 μg conjugate, 37° C., 15 minutes, pH 6.5, RLU integrated over 30 seconds) is on record?
Its value is 50 TCID50 units.

What about the “response of the signal to virus input” value (over the entire range tested (0.5 to 5,000 TCID50 units)) of the same molecule?
Its value is “linear response”.
